Assay results from article PMC11930087, “Mobility of four structural regions drives isoform-specific properties of photoenzyme LPOR in plants” (The Journal of Biological Chemistry, 2025).

Key:
[1] = target: T1, AtPORB (Arabidopsis thaliana, UniProt P21218); assay: […] K Pchlide fluorescence in darkness, F648/F635 ratio vs NADPH, hyperbolic fit; format: binding; settings: lipid-free; 5 μM Pchlide, 15 μM LPOR, pH 7.1, room-temperature dark incubation; apparent parameter, exact value in supplement; read-out: KM^D
T1 construct: gene PORB
T1 sequence (P21218 67-401): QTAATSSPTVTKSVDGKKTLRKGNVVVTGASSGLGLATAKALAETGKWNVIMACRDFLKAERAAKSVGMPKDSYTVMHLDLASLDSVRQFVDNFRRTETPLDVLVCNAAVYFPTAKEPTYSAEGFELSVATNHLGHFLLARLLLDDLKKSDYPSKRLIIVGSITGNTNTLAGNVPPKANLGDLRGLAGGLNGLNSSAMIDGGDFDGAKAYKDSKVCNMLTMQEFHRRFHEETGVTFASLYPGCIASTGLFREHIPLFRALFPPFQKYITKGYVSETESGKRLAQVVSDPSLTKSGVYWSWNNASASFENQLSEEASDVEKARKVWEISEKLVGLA

[2] = target: T2, TaPOR1 (Triticum aestivum, UniProt Q41578); assay: as above; format: binding; settings: lipid-free; 5 μM Pchlide, 15 μM LPOR, pH 7.1, room-temperature dark incubation; apparent parameter, exact value in supplement; read-out: KM^D
T2 construct: gene PORA
T2 sequence (Q41578 75-388): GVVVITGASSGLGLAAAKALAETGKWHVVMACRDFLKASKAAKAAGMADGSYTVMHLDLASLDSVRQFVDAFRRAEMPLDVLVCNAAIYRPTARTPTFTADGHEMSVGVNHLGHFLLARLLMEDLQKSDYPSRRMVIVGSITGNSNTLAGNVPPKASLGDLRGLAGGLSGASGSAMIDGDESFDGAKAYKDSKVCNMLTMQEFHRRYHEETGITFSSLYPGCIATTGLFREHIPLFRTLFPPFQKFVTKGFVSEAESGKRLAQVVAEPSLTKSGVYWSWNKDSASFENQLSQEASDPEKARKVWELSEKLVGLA

Kd [1]: > 100 µM
Kd [2]: > 100 µM
Compound: NC(=O)C1=CN([C@@H]2O[C@H](COP(=O)(O)OP(=O)(O)OC[C@H]3O[C@@H](n4cnc5c(N)ncnc54)[C@H](OP(=O)(O)O)[C@@H]3O)[C@@H](O)[C@H]2O)C=CC1 [NADPH]
